# Source: patent US9492471B2, “Methods of treating a disease or disorder associated with Bruton'S Tyrosine Kinase” (Celgene Avilomics Research, Inc., priority 2013, dated 2016)
# Where two headings read alike, the source gives them in different places.
# Assays:
# Experiment in all cases: HotSpot kinase profiling
# Assay type in all cases: biochemical
# NLK = target: T1, NLK (Homo sapiens, UniProt Q9UBE8)
# T1 construct: purchased Reaction Biology Corp
# T1 sequence (Q9UBE8 1-527): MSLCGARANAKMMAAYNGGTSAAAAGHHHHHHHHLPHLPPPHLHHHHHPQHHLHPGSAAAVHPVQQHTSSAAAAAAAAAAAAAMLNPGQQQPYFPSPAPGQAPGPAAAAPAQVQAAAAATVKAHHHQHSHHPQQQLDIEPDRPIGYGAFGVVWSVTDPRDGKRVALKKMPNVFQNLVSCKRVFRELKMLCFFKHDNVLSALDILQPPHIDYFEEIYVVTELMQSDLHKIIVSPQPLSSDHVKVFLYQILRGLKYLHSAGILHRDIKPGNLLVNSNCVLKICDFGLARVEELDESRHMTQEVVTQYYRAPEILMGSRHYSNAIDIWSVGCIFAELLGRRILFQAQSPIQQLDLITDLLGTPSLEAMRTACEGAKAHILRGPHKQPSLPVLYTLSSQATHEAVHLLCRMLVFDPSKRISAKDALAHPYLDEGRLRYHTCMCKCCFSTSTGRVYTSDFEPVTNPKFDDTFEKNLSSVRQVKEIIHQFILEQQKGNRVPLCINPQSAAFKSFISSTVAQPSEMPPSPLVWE
# How it was run: (§1)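 Radiometric kinase assay with P81 filter capture; each kinase was added to fresh substrate plus cofactors in reaction buffer and incubated 2 h at room temperature. Unreacted phosphate was washed off with 0.1% phosphoric acid before detection; percent inhibition is relative to DMSO control, averaged over replicates.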
# PBK/TOPK = target: T2, PBK/TOPK (Homo sapiens, UniProt Q96KB5)
# T2 construct: purchased Reaction Biology Corp
# T2 sequence (Q96KB5 1-322): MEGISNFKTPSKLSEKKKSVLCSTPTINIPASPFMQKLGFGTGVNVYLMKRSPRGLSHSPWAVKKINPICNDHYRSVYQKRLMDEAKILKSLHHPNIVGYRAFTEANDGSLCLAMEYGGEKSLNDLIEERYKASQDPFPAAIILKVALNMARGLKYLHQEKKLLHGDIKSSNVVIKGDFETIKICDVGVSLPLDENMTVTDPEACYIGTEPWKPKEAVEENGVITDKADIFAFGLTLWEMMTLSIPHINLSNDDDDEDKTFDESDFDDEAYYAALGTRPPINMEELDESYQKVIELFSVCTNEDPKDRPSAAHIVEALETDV
# How it was run: as §1
# ERK1 = target: T3, ERK1 (Homo sapiens, UniProt P27361)
# T3 construct: purchased Reaction Biology Corp
# How it was run: as §1
# NEK4 = target: T4, NEK4 (Homo sapiens, UniProt P51957)
# T4 construct: purchased Reaction Biology Corp
# How it was run: as §1
# GSK3a = target: T5, GSK3a (Homo sapiens, UniProt P49840)
# T5 construct: purchased Reaction Biology Corp
# How it was run: as §1
# MLK1/MAP3K9 = target: T6, MLK1/MAP3K9 (Homo sapiens, UniProt P80192)
# T6 construct: purchased Reaction Biology Corp
# How it was run: as §1
# EPHA2 = target: T7, EPHA2 (Homo sapiens, UniProt P29317)
# T7 construct: purchased Reaction Biology Corp
# How it was run: as §1
# Aurora C = target: T8, Aurora C (Homo sapiens, UniProt Q9UQB9)
# T8 construct: purchased Reaction Biology Corp
# T8 sequence (Q9UQB9 1-309): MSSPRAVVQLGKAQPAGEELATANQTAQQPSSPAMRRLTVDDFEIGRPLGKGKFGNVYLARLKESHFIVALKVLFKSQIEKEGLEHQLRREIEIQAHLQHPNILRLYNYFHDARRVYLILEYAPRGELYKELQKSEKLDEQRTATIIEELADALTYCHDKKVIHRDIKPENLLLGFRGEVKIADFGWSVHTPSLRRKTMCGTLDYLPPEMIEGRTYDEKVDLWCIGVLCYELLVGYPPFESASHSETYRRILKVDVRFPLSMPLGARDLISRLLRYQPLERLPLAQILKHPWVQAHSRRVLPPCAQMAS
# How it was run: as §1
# PKCb1 = target: T9, PKCb1 (Homo sapiens, UniProt P05771)
# T9 construct: purchased Reaction Biology Corp
# How it was run: as §1
# MST2/STK3 = target: T10, MST2/STK3 (Homo sapiens, UniProt Q13188)
# T10 construct: purchased Reaction Biology Corp
# T10 sequence (Q13188 1-491): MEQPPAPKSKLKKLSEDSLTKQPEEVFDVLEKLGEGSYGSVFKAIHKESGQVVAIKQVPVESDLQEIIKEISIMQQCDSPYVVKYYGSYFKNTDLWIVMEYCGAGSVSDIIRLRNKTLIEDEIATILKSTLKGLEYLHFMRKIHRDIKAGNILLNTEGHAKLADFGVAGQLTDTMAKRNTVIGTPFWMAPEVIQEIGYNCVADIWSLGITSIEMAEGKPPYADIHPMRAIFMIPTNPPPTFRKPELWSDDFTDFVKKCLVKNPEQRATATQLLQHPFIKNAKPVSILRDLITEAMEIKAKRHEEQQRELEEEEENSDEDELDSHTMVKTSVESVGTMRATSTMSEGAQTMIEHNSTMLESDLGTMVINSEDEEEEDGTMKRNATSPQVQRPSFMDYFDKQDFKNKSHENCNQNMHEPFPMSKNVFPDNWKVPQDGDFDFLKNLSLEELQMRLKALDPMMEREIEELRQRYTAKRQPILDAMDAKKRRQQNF
# How it was run: as §1
# [1] = read-out: % Enzyme Activity (relative to DMSO controls) Run 1
# [2] = read-out: % Enzyme Activity (relative to DMSO controls) Run 2
# T7 sequence (P29317 24-976): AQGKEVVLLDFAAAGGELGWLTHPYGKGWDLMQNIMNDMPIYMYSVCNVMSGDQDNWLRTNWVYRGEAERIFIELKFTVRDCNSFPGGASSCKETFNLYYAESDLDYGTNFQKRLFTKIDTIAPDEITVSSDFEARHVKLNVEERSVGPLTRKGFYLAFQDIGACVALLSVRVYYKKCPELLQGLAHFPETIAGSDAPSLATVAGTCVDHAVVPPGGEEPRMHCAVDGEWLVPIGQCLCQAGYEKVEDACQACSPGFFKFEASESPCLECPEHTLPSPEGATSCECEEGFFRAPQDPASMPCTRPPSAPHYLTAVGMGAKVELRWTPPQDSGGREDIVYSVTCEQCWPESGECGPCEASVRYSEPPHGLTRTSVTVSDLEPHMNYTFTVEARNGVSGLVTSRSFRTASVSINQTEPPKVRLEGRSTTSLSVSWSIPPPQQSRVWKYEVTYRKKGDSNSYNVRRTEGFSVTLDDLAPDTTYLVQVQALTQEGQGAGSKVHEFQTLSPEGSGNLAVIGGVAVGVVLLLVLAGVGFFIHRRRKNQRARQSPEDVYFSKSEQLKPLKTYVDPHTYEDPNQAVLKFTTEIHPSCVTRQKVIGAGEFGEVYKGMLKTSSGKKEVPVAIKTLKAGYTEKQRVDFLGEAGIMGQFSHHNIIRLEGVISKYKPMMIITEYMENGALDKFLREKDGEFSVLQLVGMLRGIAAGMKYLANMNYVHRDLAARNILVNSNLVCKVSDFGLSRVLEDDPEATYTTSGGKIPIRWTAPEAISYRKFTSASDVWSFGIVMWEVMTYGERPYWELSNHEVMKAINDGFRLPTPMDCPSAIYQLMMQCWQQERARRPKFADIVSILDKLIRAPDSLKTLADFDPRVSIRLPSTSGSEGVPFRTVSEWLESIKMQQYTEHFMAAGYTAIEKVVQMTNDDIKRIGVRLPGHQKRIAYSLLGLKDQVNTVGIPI
# T9 sequence (P05771 whole entry): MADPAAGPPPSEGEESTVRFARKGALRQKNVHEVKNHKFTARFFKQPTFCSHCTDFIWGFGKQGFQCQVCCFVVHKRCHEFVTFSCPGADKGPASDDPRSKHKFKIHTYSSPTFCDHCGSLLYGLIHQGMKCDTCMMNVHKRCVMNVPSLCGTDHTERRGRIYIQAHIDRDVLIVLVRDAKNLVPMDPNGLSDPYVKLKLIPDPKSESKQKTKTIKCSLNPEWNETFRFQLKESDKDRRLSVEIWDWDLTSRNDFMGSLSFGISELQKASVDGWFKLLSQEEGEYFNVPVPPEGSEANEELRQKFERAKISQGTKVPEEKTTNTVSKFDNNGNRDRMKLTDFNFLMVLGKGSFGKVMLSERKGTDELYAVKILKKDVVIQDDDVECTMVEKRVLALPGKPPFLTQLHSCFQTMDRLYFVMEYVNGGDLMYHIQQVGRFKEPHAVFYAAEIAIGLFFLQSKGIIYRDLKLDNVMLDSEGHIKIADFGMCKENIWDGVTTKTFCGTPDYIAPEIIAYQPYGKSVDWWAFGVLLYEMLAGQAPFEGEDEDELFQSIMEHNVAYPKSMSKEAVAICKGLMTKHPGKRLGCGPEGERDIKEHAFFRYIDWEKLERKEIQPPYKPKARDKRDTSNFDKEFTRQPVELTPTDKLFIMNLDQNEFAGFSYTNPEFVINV
# T5 sequence (P49840 whole entry): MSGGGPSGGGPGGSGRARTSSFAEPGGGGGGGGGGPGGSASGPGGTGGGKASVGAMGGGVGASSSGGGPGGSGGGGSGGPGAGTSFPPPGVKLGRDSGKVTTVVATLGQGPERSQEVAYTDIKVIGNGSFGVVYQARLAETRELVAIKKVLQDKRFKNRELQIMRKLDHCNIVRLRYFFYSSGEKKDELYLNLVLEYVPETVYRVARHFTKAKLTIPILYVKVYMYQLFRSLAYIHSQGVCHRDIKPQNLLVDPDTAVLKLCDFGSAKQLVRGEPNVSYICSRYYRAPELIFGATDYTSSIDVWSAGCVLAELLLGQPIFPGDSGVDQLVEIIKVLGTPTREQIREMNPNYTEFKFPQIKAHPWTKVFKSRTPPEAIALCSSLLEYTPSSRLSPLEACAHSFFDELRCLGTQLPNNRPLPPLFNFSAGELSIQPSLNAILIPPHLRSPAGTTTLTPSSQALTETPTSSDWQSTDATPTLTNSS
# T6 sequence (P80192 whole entry): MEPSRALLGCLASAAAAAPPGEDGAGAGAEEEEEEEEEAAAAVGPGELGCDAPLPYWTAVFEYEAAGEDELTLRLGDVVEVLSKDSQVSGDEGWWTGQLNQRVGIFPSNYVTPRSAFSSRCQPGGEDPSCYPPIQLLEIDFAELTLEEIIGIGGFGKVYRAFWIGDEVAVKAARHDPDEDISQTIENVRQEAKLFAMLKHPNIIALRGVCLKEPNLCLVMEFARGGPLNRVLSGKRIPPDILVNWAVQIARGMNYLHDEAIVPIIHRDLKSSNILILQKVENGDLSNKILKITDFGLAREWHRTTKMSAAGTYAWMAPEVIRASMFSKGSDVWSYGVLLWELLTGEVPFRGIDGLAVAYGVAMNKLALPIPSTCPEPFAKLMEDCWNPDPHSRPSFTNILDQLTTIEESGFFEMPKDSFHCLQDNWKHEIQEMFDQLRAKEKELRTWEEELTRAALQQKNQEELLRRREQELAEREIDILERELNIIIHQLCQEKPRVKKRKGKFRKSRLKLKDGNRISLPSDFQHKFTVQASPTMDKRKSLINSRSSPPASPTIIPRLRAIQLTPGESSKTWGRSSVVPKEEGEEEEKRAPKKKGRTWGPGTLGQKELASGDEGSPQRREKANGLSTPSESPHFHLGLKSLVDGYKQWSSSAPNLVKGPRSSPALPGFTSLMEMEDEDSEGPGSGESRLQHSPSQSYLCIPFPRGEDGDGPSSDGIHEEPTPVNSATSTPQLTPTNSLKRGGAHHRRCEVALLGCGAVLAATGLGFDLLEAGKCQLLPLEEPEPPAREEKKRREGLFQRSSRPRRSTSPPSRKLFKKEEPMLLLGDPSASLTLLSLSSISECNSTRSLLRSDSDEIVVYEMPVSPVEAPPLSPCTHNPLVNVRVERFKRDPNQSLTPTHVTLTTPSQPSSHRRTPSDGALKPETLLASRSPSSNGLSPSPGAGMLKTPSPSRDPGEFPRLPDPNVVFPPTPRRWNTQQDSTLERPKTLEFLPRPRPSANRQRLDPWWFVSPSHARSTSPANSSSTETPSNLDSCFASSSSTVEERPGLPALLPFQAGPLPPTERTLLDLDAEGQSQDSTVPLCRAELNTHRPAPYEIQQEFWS
# T3 sequence (P27361 whole entry): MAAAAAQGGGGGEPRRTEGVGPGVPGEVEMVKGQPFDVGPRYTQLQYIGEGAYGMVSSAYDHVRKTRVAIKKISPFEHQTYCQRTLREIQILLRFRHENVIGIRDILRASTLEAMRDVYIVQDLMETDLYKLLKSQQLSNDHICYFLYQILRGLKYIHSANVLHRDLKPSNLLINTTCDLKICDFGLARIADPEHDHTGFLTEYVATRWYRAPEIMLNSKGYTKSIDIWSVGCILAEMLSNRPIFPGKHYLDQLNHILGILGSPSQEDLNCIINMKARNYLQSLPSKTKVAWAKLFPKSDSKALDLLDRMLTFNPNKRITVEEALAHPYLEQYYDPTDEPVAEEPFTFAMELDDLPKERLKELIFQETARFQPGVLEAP
# T4 sequence (P51957 whole entry): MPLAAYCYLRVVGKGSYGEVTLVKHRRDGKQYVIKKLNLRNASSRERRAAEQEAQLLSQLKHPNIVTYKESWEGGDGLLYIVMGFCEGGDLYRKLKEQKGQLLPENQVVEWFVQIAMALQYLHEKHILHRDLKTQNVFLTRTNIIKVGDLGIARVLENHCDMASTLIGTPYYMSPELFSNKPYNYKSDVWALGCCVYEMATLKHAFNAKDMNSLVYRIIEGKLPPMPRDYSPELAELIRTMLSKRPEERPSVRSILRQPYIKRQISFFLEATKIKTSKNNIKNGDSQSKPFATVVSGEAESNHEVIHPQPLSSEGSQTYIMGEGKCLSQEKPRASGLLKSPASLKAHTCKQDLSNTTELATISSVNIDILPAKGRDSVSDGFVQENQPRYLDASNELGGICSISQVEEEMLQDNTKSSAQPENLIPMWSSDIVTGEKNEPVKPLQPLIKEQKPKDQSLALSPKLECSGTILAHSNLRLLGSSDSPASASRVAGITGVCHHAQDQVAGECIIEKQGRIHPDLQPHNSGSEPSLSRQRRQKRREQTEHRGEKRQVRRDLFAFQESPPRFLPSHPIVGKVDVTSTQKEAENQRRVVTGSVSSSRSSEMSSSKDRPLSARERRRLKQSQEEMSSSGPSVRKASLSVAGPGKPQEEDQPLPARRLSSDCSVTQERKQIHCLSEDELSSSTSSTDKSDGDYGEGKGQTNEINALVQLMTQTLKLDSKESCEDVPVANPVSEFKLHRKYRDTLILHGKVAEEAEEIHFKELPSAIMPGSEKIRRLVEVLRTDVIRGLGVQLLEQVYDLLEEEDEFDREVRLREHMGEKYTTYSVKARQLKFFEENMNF
structure (smiles),measurement,setting,value
C=CC(=O)Nc1cccc(Nc2nc(Nc3ccc(OCCOC)c(F)c3)ncc2F)c1 [Compound 2],inhibition at 3 µM,NLK,-1.29%
same,remaining activity at 3 µM,NLK; [1],99.6%
same,remaining activity at 3 µM,NLK; [2],103%
same,inhibition at 3 µM,PBK/TOPK,3.07%
same,remaining activity at 3 µM,PBK/TOPK; [1],98.6%
same,remaining activity at 3 µM,PBK/TOPK; [2],95.3%
same,inhibition at 3 µM,ERK1,1.32%
same,remaining activity at 3 µM,ERK1; [1],97.4%
same,remaining activity at 3 µM,ERK1; [2],99.9%
same,inhibition at 3 µM,NEK4,13.5%
same,remaining activity at 3 µM,NEK4; [1],84.6%
same,remaining activity at 3 µM,NEK4; [2],88.3%
same,inhibition at 3 µM,GSK3a,24.5%
same,remaining activity at 3 µM,GSK3a; [1],76%
same,remaining activity at 3 µM,GSK3a; [2],75%
same,inhibition at 3 µM,MLK1/MAP3K9,85.7%
same,remaining activity at 3 µM,MLK1/MAP3K9; [1],14.5%
same,remaining activity at 3 µM,MLK1/MAP3K9; [2],14.1%
same,inhibition at 3 µM,EPHA2,15.8%
same,remaining activity at 3 µM,EPHA2; [1],84.2%
same,remaining activity at 3 µM,EPHA2; [2],84.1%
same,inhibition at 3 µM,Aurora C,72%
same,remaining activity at 3 µM,Aurora C; [1],26.2%
same,remaining activity at 3 µM,Aurora C; [2],29.8%
same,inhibition at 3 µM,PKCb1,27.6%
same,remaining activity at 3 µM,PKCb1; [1],72.7%
same,remaining activity at 3 µM,PKCb1; [2],72.1%
same,inhibition at 3 µM,MST2/STK3,10.1%
same,remaining activity at 3 µM,MST2/STK3; [1],91.1%
same,remaining activity at 3 µM,MST2/STK3; [2],88.6%
